Data published in patent publication US12295997B2, “Prostate neoantigens and their uses” (Janssen Biotech, Inc., priority 2020, dated 2025).

B1: VPFRELKNQRTAQGAPGIHHAASPVAANLCDPARHAQHTRIPCGAGQVRAGRGPEAGGGVLQPQRPAPEKPGCPCRRGQPRLHTVKMWRA (peptide, listed as Homo sapiens)
chain: VPFRELKNQRTAQGAPGIHHAASPVAANLCDPARHAQHTRIPCGAGQVRAGRGPEAGGGVLQPQRPAPEKPGCPCRRGQPRLHTVKMWRA
notes: CPNE7 alternative splicing
B2: CHLFLQPQVGTPPPHTASARAPSGPPHPHESCPAGRRPARAAQTCARRQHGLPGCEEAGTARVPSLHLHLHQAALGAGRGRGWGEACAQVPPSRG (peptide, listed as Homo sapiens)
chain: CHLFLQPQVGTPPPHTASARAPSGPPHPHESCPAGRRPARAAQTCARRQHGLPGCEEAGTARVPSLHLHLHQAALGAGRGRGWGEACAQVPPSRG
notes: RECQL4 alternative splicing
B3: VPFRELKNVSVLEGLRQGRLGGPCSCHCPRPSQARLTPVDVAGPFLCLGDPGLFPPVKSSI (peptide, listed as Homo sapiens)
chain: VPFRELKNVSVLEGLRQGRLGGPCSCHCPRPSQARLTPVDVAGPFLCLGDPGLFPPVKSSI
notes: CPNE7 alternative splicing

Tested on: CD8+ and CD4+ T cells (autologous CD3+ Pan-T cells isolated from human normal PBMCs)
Test: Exogenous autologous normal donor restimulation assay (15-mer overlapping peptide pools on CD1c+ dendritic cells, TNFα/IFNγ flow cytometry)
Type: cell-based
Settings: 15-mer overlapping peptide pool; for Max. Fold Change over background CD4+ TNFαINFγ double positive DP / Max. Fold Change over background CD8+ TNFαINFγ double positive DP / Max. Frequency of CD4+ TNFαINFγ DP / Max. Frequency of CD8+ TNFαINFγ DP: Table 28, additional neoantigens, highest across normal donors; for Maximum Fold Change Over Background CD4+ cells / Maximum Fold Change Over Background CD8+ cells / Maximum Frequency of TNFα/IFNγ Double Positive CD4+ T cells / Maximum Frequency of TNFα/IFNγ Double Positive CD8+ T cells: Table 25; for Maximum Fold Change Over Background CD4+ cells: TNFα+IFNγ+ CD4+ T cells; for Maximum Fold Change Over Background CD4+ cells / Maximum Fold Change Over Background CD8+ cells: highest fold change over negative control across normal donors; for Maximum Fold Change Over Background CD8+ cells: TNFα+IFNγ+ CD8+ T cells; for Maximum Frequency of TNFα/IFNγ Double Positive CD4+ T cells / Maximum Frequency of TNFα/IFNγ Double Positive CD8+ T cells: highest frequency across normal donors
Procedure: CD1c+ Dendritic Cells (DC) isolated from human normal PBMCs were thawed using media (IMDM (Gibco) supplemented with glutamine, HEPES, 5% human serum (Sigma), and 1× Pen-Strep). DC cells were resuspended in media supplemented with IL-4 (Peprotech, 80 ng/mL) and GM-CSF (Gibco, 80 ng/mL), plated in 6 well microplates, and rested overnight at 37° C. (5% CO2). The following day, DC cells were counted and plated in a 96 well round bottom microplate at a concentration of 30,000 viable cells per well. Lyophilized peptides (15-mer overlapping peptides) were solubilized in 100% DMSO and pooled by neoantigen to between 5 mg/mL and 20 mg/mL. Neoantigen peptides pools were added to DCs for a final concentration of […] and rested for 2 hours at 37° C. (5% CO2). CEF Peptide Pool “Plus” (Cellular Technologies, Ltd.) was utilized as a positive control and DMSO at the same final concentration as the experimental peptides was utilized as a negative control. After 2 hours, DC cells were irradiated with 50 gray of ionizing radiation. Autologous CD3+ Pan-T cells isolated from human normal PBMCs were thawed using media. Following irradiation, autologous Pan-T cells were added to the irradiated DCs at 300,000 viable cells per well. Human IL-15 (Peprotech) was added to all wells at final concentration of 10 ng/mL.
Plates were incubated at 37° C. (5% CO2) for a total of 12 days. Media was refreshed every 2-3 days with IL-15 (10 ng/mL final concentration) and IL-2 (R&D systems, 10 IU/mL final concentration). On day 11 cells were re-stimulated with identical experimental peptide pools or controls, at same concentration as peptide stimulation on Day 1. Protein Inhibitor Cocktail (eBioscience) was added to every well and plate was incubated overnight at 37° C. (5% CO2).
On day 12, cells were stained for intracellular flow cytometry analysis. The cells were washed with PBS and stained with Live/Dead Fixable Aqua Dead Cell stain (Thermo-Fisher). Following the live/dead stain, cells were blocked using Biotin-Free Fc Receptor Blocker (Accurate Chemical & Scientific Corp). Extracellular cellular flow panel (1 μL/antibody per well in 50 μL) consisted of CD3 PerCP-Cy5.5 (Biolegend), CD4 BV421 (Biolegend), and CD8 APC-Cy7 (Biolegend). After extracellular staining, cells were fixed using Foxp3/fTranscription Factor Staining Buffer Set (eBioscience) and stained for intracellular proteins (1:50 dilution) using TNFα FITC (R&D Systems) and IFNγ BV785 (Biolegend). Cells were washed and resuspended in stain buffer and analyzed using a BD Celesta flow cytometer.
Flow cytometry cell staining analysis was completed using FlowJo v10. Cells were gated on live, singlet, CD3+ cells. The CD8+ and CD4+ T cells were analyzed for TNFα/IFNγ expression and the frequency of double positive TNFα/IFNγ CD8+ and the frequency of double positive TNFα/IFNγ CD4+ T cells were recorded. Responses were assessed to be positive when the frequency of double positive TNFα/IFNγ CD8+ or TNFα/IFNγ CD4+ T cells due to stimulation with an experimental peptide pool was increased greater than or equal to 3-fold over the DMSO only negative control for that donor and at least 0.01%.
(§1) Overlapping 15-mer peptides were designed to span each neoantigen incorporated into NeoGAd20 and NeoMVA to assess their ability to activate T cells using the exogenous autologous normal donor restimulation assay described in Example 1 as pools using TNFα and IFNγ production by CD8^+ and CD4^+ T cells as a readout.
as §1, with “Immunogenicity of various additional identified neoantigens was assessed. Overlapping” for “Overlapping”, “similarly to what was done in Example 11” for “incorporated into NeoGAd20 and NeoMVA”

Molecule	Max. Fold Change over background CD4+ TNFαINFγ double positive DP	Max. Fold Change over background CD8+ TNFαINFγ double positive DP	Max. Frequency of CD4+ TNFαINFγ DP	Max. Frequency of CD8+ TNFαINFγ DP	Maximum Fold Change Over Background CD4+ cells	Maximum Fold Change Over Background CD8+ cells	Maximum Frequency of TNFα/IFNγ Double Positive CD4+ T cells	Maximum Frequency of TNFα/IFNγ Double Positive CD8+ T cells
P37 (MAGGVLRRLLCREPDRDGDKGASREETVVPLHIGDPVVLPGIGQCYSALF; listed as Homo sapiens) [Neoantigen P37]	22.78	2.05	0.09	0.13	–	–	–	–
P97 (GYLRMQGLMAQRLLLR; listed as Homo sapiens) [Neoantigen P97]	3.14	7.47	0.12	1.11	–	–	–	–
PEPRRLSPGEPRGRPRKGWGIWGLCGARVGPKAWR (listed as Homo sapiens) [AS42, SLC39A4 alternative splicing]	24.58	4.65	0.59	0.69	–	–	–	–
PVPTATPGVRSVTSPQGLGLFLKFI (listed as Homo sapiens) [AS9, CACNA1D alternative splicing]	4.18	3.81	0.16	0.12	–	–	–	–
QPDSFAALHSSLNELGE (listed as Homo sapiens) [Neoantigen M86, AR L702H]	–	–	–	–	6.18	4.22	0.05	0.08
QQLRIFCAAMASNEDFS (listed as Homo sapiens) [FUS11, MBTPS2->YY2 gene fusion]	28.57	2.63	0.16	0.1	–	–	–	–
QWQHYHRSGEAAGTPLWRPTRN (listed as Homo sapiens) [AS19, NWD1 alternative splicing]	–	–	–	–	2.59	5.87	0.1	0.63
RLTQRLVQGWTPMENRWCGRRAGGQPASSSTRWTTCRAACLLTKWTAGRSQTSIG (listed as Homo sapiens) [AS49, PDF alternative splicing]	184.87	8.67	0.14	0.65	–	–	–	–
RTALTHNQDFSIYRLCCKRGSLCHASQARSPAFPKPVRPLPAPITRITPQLGGQSDSSQPLLTTGRPQGWQDQALRHTQQASPASCATITIPIHSAALGDHSGDPGPAWDTCPPLPLTTLIPRAPPPYGDSTARSWPSRCGPLG [MS3]	–	–	–	–	13.61	36.15	0.09	0.47
TEISCCTLSSEENEYLPRPEWQLQ (listed as Homo sapiens) [FUS3, MSMB->NCOA4 gene fusion]	–	–	–	–	2.75	3.94	0.033	0.063
TEYNQKLQVNQFSESK (listed as Homo sapiens) [FUS2, ARHGEF38->ARHGEF38-IT1 gene fusion]	–	–	–	–	2.14	3.13	0.03	0.05
TGGKSTCSAPGPQSLPSTPFSTYPQWVILITEL (listed as Homo sapiens) [AS57, KLK3 alternative splicing]	–	–	–	–	11.00	4.67	0.110	0.056
TMPAILKLQKNCLLSL (listed as Homo sapiens) [MS8]	–	–	–	–	15.60	4.44	0.40	0.14
VAMMVPDRQVHYDFGL (listed as Homo sapiens) [AS3, DNAH8 alternative splicing]	–	–	–	–	3.86	7.92	0.054	0.095
VETLENANSFSSGIQPLLCSLIGLENPT (listed as Homo sapiens) [AS58, CREB3L1 alternative splicing]	6.27	4.54	0.24	0.6	–	–	–	–
VLRFLDLKVRYLHS (listed as Homo sapiens) [AS15, LRRC45 alternative splicing]	–	–	–	–	9.17	4.36	0.110	0.061
VVGRRHETAPQPLLVPDRAGGEGGA (listed as Homo sapiens) [AS5, DHDH alternative splicing]	8.71	2.13	0.1	0.16	–	–	–	–
WCPLDLRLGSTGCLTCRHHQTSHE (listed as Homo sapiens) [AS4, NCAPD3 alternative splicing]	37.38	5.4	1.43	0.17	–	–	–	–
B1	–	–	–	–	2.98	5.11	0.03	0.07
B2	–	–	–	–	7.51	19.47	0.04	0.74
B3	–	–	–	–	5.67	28.75	0.040	0.460
